Assay results: patent US20080221060A1, “Therapeutic Compounds” (priority 2004, published 2008)
Values joined by “and” are separate entries in the source; they are usually repeats but may differ in a detail not shown here. Equal values may be shown once. Read-outs that look alike come from different tables or passages of the source.

Legend:
[1] = test system: carrageenan (CGN) induced inflammation; experiment: carrageenan induced paw inflammation (plethysmometry); assay type: in vivo; details: rat, 62.4 and 624 μg/kg i.p.; indomethacin 3 mg/kg po as comparator
Procedure: Carrageenan (2%, 10 microlitres) was administered into the right hind paw of a rat, and the paw volume assessed by plethysomometry. Spongosine was administered at the same time as carrageenan.

[2] = test system: human macrophage cell line U937; experiment: LPS induced TNF alpha release in U937 cells; assay type: cell-based; details: 100 ng/ml LPS, 3 hours
Procedure: Cells of human macrophage cell line U937 were grown in suspension to 500,000 cells/ml, plated out into 48 well plates, treated with 20 ng/ml PMA and incubated for 8 hours. Cells adhered to well bottoms and were washed and allowed to recover for 36 hours before use. […] After 3 hours the cell supernatants were assayed for TNF alpha using fluorescence labeled ELISA kits.

[3] = test system: chronic constriction injury model of neuropathic pain; experiment: static allodynia, chronic constriction injury of the rat sciatic nerve; assay type: in vivo; details: rat CCI
From the text: The total dose administered is shown on the horizontal axis, and the paw withdrawal threshold (PWT) on the vertical axis.

[4] = 20 mg/kg po; cited from earlier work
[5] = biological target: T1, adenosine A2A receptor (Cavia porcellus, UniProt P46616); details: guinea pig; read-out: EC50, adenosine A2A receptor, isolated heart preparation; cited from earlier work
T1 construct: host or cells: guinea pig isolated heart

[6] = blood pressure and heart rate in rats (radiotelemetry); assay type: in vivo, rat
From the text: An implantable radiotelemetry device was placed in the abdominal cavity of 6 rats per group. The pressure catheter of the device was inserted in the abdominal aorta and two electrodes tunnelised under the skin in a lead II position (left side of abdominal cavity/right shoulder). Individual rats were placed in their own cage on a radioreceptor (DSI) for data acquisition. A: blood pressure; B: heart rate.

[7] = biological target: rat A2A receptor (Rattus norvegicus, UniProt P30543); details: read-out: EC50 for stimulation of the rat A2A receptor; cited from earlier work
[8] = tachycardia by 12 lead ECGs in human volunteers; assay type: in vivo
Procedure: Tachycardia was determined using 12 lead ECGs.

[9] = biological target: T2, rat adenosine A1 receptor (Rattus norvegicus, UniProt P25099); details: cited from earlier work
T2 sequence (P25099 1-326): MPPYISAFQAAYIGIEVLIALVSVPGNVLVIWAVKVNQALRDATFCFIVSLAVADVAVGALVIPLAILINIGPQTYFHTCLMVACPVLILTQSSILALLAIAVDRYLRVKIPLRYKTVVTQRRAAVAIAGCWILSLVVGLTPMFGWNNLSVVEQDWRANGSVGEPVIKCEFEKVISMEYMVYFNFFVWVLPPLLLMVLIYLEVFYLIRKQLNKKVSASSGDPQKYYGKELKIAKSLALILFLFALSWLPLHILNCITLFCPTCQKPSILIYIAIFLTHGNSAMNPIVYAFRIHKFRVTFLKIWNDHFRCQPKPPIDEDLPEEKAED

[10] = biological target: adenosine A2A receptor (UniProt P30543); experiment: EC50 at the adenosine A2A receptor; assay type: biochemical
From the text: (§1) For the avoidance of doubt, the EC50 value of a compound is defined herein as the concentration of the compound that provokes a receptor response halfway between the baseline receptor response and the maximum receptor response (as determined, for example, using a dose-response curve).
(§2) The EC50 value should be determined under standard conditions (balanced salt solutions buffered to pH 7.4). For EC50 determinations using isolated membranes, cells and tissues this would be in buffered salt solution at pH 7.4 (e.g. cell culture medium), for example as in Daly et al, Pharmacol. (1993) 46, 91-100), or preferably as in Tilburg et al (J. Med. Chem. (2002) 45, 91-100). The EC50 could also be determined in vivo by measuring adenosine receptor mediated responses in a normal healthy animal, or even in a tissue perfused under normal conditions (i.e. oxygenated blood, or oxygenated isotonic media, also buffered at pH 7.4) in a normal healthy animal.

[11] = test system: carageenan-induced inflammation; details: rats, 20 mg/kg po; cited from earlier work
[12] = test system: carrageenan (CGN) induced thermal hyperalgesia; experiment: carrageenan induced thermal hyperalgesia (CITH); assay type: in vivo; details: 0.624 mg/kg p.o.; indomethacin 3 mg/kg po as comparator
Procedure: A. […] Carrageenan (2%, 10 microlitres) was administered into the right hind paw. A heat source was placed close to the treated and untreated hind paws, and the difference in the paw withdrawal latencies is shown. Spongosine was administered at the same time as carrageenan.

[13] = biological target: T3, adenosine A1 receptor (Cavia porcellus, UniProt P47745); details: guinea pig; read-out: EC50, adenosine A1 receptor, isolated heart preparation; cited from earlier work
T3 construct: host or cells: guinea pig isolated heart
T3 sequence (P47745 1-326): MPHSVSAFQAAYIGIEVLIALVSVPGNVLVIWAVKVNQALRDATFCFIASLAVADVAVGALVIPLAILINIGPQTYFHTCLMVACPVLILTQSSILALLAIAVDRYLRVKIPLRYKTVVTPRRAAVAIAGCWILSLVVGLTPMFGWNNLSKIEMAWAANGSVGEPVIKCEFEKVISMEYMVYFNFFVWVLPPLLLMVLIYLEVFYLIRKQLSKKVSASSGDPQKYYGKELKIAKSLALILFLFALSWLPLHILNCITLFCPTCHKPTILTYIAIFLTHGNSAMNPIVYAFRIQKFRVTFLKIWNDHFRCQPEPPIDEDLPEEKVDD

[14] = biological target: adenosine receptors (rat striatal membranes, [3H]-CGS21680) (Rattus norvegicus, UniProt P30543); experiment: Ki from displacement of [3H]-CGS21680 in rat striatal membranes at pH 5.5 and pH 7.4; assay type: binding; design: from tissue; host or cells: rat striatum (membranes); details: for Ki: 2 nM [3H]-CGS21680, 90 minutes at 22° C.
[15] = biological target: adenosine receptors (Rattus norvegicus, UniProt P30543); experiment: EC50 at adenosine receptors measured at pH 7.4; assay type: biochemical; details: measured at pH7.4
From the text: as §1, §2

[16] = plasma concentrations after single oral dosing in human volunteers; assay type: in vivo
[17] = test system: chronic constriction injury model of neuropathic pain; experiment: thermal hyperalgesia, chronic constriction injury of the rat sciatic nerve; assay type: in vivo; details: rat CCI, 0.624 mg/kg p.o.
From the text: After approximately two weeks the rats developed thermal hyperalgesia in the operated leg as judged by the difference in paw withdrawal latencies of the right and left paws.

Sequence of adenosine receptors (rat striatal membranes, [3H]-CGS21680) (P30543 whole entry): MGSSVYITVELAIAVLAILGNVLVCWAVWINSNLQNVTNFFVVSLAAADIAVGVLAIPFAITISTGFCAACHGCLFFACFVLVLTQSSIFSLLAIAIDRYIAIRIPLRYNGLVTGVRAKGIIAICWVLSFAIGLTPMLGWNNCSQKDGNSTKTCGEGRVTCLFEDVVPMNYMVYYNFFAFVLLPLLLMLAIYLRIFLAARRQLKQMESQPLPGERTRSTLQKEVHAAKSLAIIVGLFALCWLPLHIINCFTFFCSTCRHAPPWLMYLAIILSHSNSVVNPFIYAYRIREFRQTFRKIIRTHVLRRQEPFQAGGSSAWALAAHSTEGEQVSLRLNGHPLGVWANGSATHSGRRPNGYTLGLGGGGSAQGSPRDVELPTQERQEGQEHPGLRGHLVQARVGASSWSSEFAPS
Sequence of adenosine receptors (P30543 whole entry): as above
T1 sequence (P46616 whole entry): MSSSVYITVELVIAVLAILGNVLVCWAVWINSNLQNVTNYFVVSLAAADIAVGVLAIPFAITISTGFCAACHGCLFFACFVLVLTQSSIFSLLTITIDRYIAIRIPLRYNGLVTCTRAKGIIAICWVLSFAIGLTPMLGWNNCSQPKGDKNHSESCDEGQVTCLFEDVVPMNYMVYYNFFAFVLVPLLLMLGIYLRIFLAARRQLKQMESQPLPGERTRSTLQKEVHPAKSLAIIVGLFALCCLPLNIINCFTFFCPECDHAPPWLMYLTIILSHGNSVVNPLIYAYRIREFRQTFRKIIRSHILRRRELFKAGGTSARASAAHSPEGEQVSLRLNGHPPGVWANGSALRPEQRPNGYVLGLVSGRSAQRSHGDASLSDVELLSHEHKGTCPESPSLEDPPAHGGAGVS
Sequence of rat A2A receptor (P30543 whole entry): as the sequence (P30543 whole entry) above

**Q.** Which results are given for `COc1nc(N)c2ncn([C@@H]3O[C@H](CO)[C@@H](O)[C@H]3O)c2n1` [Compound 1, 2-methoxyadenosine]?
**A.** inhibition of carrageenan induced inflammation (paw volume) [1]: inhibits carrageenan (CGN) induced inflammation with comparable efficacy to indomethacin; inhibition of LPS induced TNF alpha release [2]: inhibits LPS induced TNF release; inhibition of static allodynia (paw withdrawal threshold) ([3]; […] p.o., presence and absence of naloxone (1 mg/kg s.c.)): inhibits static allodynia; inhibition of static allodynia (paw withdrawal threshold) ([3]; p.o., dose response): inhibit static allodynia; reduction in heart rate [4]: 25%; reduction in mean blood pressure [4]: 41%; EC50 [5]: 700 nM; effect on blood pressure ([6]; 62.4 and 624 μg/kg i.p.): do not affect blood pressure; effect on blood pressure ([6]; normal rats, 0.624 mg/kg p.o.): no significant effect; effect on heart rate ([6]; normal rats, 0.624 mg/kg p.o.): no significant effect; EC50 [7]: 3000 nM; Tachycardia side effect ([8]; single oral dose 0.2 mg): No; Tachycardia side effect ([8]; single oral dose 0.8 mg): No; Tachycardia side effect ([8]; single oral dose 3.5 mg): No; Tachycardia side effect ([8]; single oral dose 10.5 mg): No; Tachycardia side effect ([8]; single oral dose 21 mg): No; Tachycardia side effect ([8]; single oral dose 28 mg): Yes; Kd [9]: 340 nM; EC50 [10]: ~1000 nM; inhibition of carageenan-induced inflammation [11]: 25%; inhibition of carrageenan induced thermal hyperalgesia [12]: inhibits carrageenan (CGN) induced thermal hyperalgesia (CITH) with comparable efficacy to indomethacin; EC50 [13]: 10000 nM; Ki ([14]; pH 5.5, read-out: (Ki) nM (pH 5.5)): 1.5 nM; Ki ([14]; pH 7.4, read-out: (Ki) nM (pH 7.4)): 1300 nM; affinity for adenosine receptors at pH below pH 7.4 ([14]; pH below pH 7.4 compared with pH 7.4): increased affinity; EC50 [15]: 3030 nM and 3000 nM; Cmax ([16]; single oral dose 0.2 mg): 10 ± 5 nM; Cmax ([16]; single oral dose 0.8 mg): 40 ± 20 nM; Cmax ([16]; single oral dose 3.5 mg): 130 ± 40 nM; Cmax ([16]; single oral dose 10.5 mg): 300 ± 40 nM; Cmax ([16]; single oral dose 21 mg): 500 ± 100 nM; Cmax ([16]; single oral dose 28 mg): 600 ± 100 nM; inhibition of thermal hyperalgesia (paw withdrawal latencies) [17]: inhibits thermal hyperalgesia; efficacy compared with carbamazepine ([17]; CBZ 100 mg/kg s.c.): as, or more, effective than carbamazepine
